Laboratory results taken from patent US20240043420A1, “7-AZAINDOLE COMPOUNDS FOR INHIBITION OF BCR-ABL TYROSINE KINASES” (EnLiven Therapeutics, Inc., priority 2020, published 2024).

Key:
ABL1 (T315I) = ABL1 (T315I) (Homo sapiens, UniProt P00519, T315I); assay: Luminescence-based ABL kinase assay (ADP-Glo, 300 μM ATP), T315I mutant; assay type: biochemical
Procedure: (§1) Kinase activity of ABL1 was measured using the ADP-Glo system (Promega), which measures formation of ADP using a luminescence-based method. Compounds were serially diluted in DMSO. 20 nL of compound or DMSO only (high control, HC) were added to a 384-well plate (OptiPlate-384, PerkinElmer) using an Echo550 liquid handler (Labcyte). 15 μL of kinase solution (10 mM MgCl2, 0.01% Brij-35, 2 mM DTT, 0.05% BSA, 1 mM EGTA, 50 mM HEPES pH 7.5, and 3.325 nM ABL1 [Carna Biosciences]) were added to each well of the 384-well plate containing the compounds. No enzyme control wells were included (low control, LC). The plate was incubated at room temperature for 30 minutes. 5 μL of a second solution containing 10 mM MgCl2, 0.01% Brij-35, 2 mM DTT, 0.05% BSA, 1 mM EGTA, 50 mM HEPES pH 7.5, 6 μM Peptide 2 (Perkin Elmer, Cat No 760346), and 1.2 mM ATP were added to each well to start the kinase reaction. The plate was incubated for 90 minutes at room temperature. 20 μL of ADP-Glo reagent (Promega) were then added to each well and the plate was incubated for 40 minutes at room temperature. 40 μL of kinase detection reagent (Promega) was added to each well and the plate was incubated for an additional 45 minutes at room temperature. During this step, ADP was converted to ATP, a substrate for luciferase, to produce luminescence signal. Luminescence was measured on an Envision plate reader (Perkin Elmer). Luminescence signal positively correlates with kinase activity. The percent kinase activity was calculated as follows: percent kinase activity=100×(Lumsample−LumLC)/(LumHC−LumLC). As noted above, DMSO only and no enzyme wells were used as high and low controls, respectively. IC50 values were calculated using the XLFit software.

ABL1 = target: T1, ABL1 (Homo sapiens, UniProt P00519); assay: Luminescence-based ABL kinase assay (ADP-Glo, 300 μM ATP); assay type: biochemical
T1 construct: purchased Carna Biosciences
Procedure: as §1

Row | Compound | IC50 (ABL1 (T315I)) | IC50 (ABL1)
1 | O=C(Nc1ccc2c(-c3cccnc3OCC3CC3)c[nH]c2n1)C1CC1F (single isomer, unassigned) [Example S148, Enantiomer 1, N-(3-(2-(cyclopropylmethoxy)pyridin-3-yl)-1H-pyrrolo[2,3-b]pyridin-6-yl)-2-fluorocyclopropane-1-carboxamide Enantiomer 1] | 1810 nM | 408 nM
2 | COc1c(-c2c[nH]c3nc(NC(=O)C4CC4)ccc23)ccc2[nH]ncc12 [Compound 16, N-[3-(4-methoxy-1H-indazol-5-yl)-1H-pyrrolo[2,3-b]pyridin-6-yl]cyclopropanecarboxamide] | > 10000 nM | > 10000 nM
3 | O=C(Nc1ccc2c(-c3ccc4c(c3)NCC4)c[nH]c2n1)C1CC1 [Compound 25, N-[3-(2,3-dihydro-1H-indol-6-yl)-1H-pyrrolo[2,3-b]pyridin-6-yl]cyclopropanecarboxamide] | 74.3 nM | 776 nM
4 | CNc1ccc(-c2c[nH]c3nc(NC(=O)C4CC4)ccc23)c(OC)n1 [Compound 30, N-[3-[2-methoxy-6-(methylamino)pyridin-3-yl]-1H-pyrrolo[2,3-b]pyridin-6-yl]cyclopropanecarboxamide] | 90.2 nM | 148 nM
5 | Cc1cc(N)ncc1-c1c[nH]c2nc(NC(=O)C3CC3)ccc12 [Compound 34, N-[3-(6-amino-4-methylpyridin-3-yl)-1H-pyrrolo[2,3-b]pyridin-6-yl]cyclopropanecarboxamide] | 731 nM | 159 nM
6 | CNc1cc(C)c(-c2c[nH]c3nc(NC(=O)C4CC4)ccc23)cn1 [Compound 35, N-[3-[4-methyl-6-(methylamino)pyridin-3-yl]-1H-pyrrolo[2,3-b]pyridin-6-yl]cyclopropanecarboxamide] | 774 nM | 599 nM
7 | Nc1ncccc1-c1c[nH]c2nc(NC(=O)C3CC3)ccc12 [Compound 36, N-[3-(2-aminopyridin-3-yl)-1H-pyrrolo[2,3-b]pyridin-6-yl]cyclopropanecarboxamide] | 690 nM | 202 nM
8 | Nc1cccc(-c2c[nH]c3nc(NC(=O)C4CC4)ccc23)n1 [Compound 38, N-(3-(6-aminopyridin-2-yl)-1H-pyrrolo[2,3-b]pyridin-6-yl)cyclopropanecarboxamide] | 332 nM | 689 nM
9 | CNc1cccc(-c2c[nH]c3nc(NC(=O)C4CC4)ccc23)n1 [Compound 39, N-(3-(6-(methylamino)pyridin-2-yl)-1H-pyrrolo[2,3-b]pyridin-6-yl)cyclopropanecarboxamide] | 245 nM | 195 nM
10 | Nc1ccc(-c2c[nH]c3nc(NC(=O)C4CC4)ccc23)cn1 [Compound 40, N-[3-(6-aminopyridin-3-yl)-1H-pyrrolo[2,3-b]pyridin-6-yl]cyclopropanecarboxamide] | 170 nM | 121 nM
11 | O=C(Nc1ccc2c(-c3ccn4ccnc4c3)c[nH]c2n1)C1CC1 [Compound 55, N-(3-[imidazo[1,2-a]pyridin-7-yl]-1H-pyrrolo[2,3-b]pyridin-6-yl)cyclopropanecarboxamide] | 1030 nM | 114 nM
12 | Cn1cc(-c2c[nH]c3nc(NC(=O)C4CC4)ccc23)ccc1=O [Compound 57, N-[3-(1-methyl-6-oxopyridin-3-yl)-1H-pyrrolo[2,3-b]pyridin-6-yl]cyclopropanecarboxamide] | 3870 nM | 1090 nM
13 | CN(C)c1ncccc1-c1c[nH]c2nc(NC(=O)C3CC3)ccc12 [Compound 65, N-(3-(2-(dimethylamino)pyridin-3-yl)-1H-pyrrolo[2,3-b]pyridin-6-yl)cyclopropanecarboxamide] | 8700 nM | 158 nM
14 | COc1c(-c2c[nH]c3nc(NC(=O)[C@@H]4C[C@@H]4F)ccc23)ccc2nccn12 [Compound 73, (1S,2S)-2-fluoro-N-(3-(5-methoxyimidazo[1,2-a]pyridin-6-yl)-1H-pyrrolo[2,3-b]pyridin-6-yl)cyclopropane-1-carboxamide] | > 10000 nM | 2460 nM
15 | COc1ncc(F)cc1-c1c[nH]c2nc(NC(=O)NCCN(C)C)ccc12 [Compound 80, 3-[2-(dimethylamino)ethyl]-1-[3-(5-fluoro-2-methoxypyridin-3-yl)-1H-pyrrolo[2,3-b]pyridin-6-yl]urea] | 659 nM | 1050 nM
16 | COc1ncccc1-c1c(C)[nH]c2nc(NC(=O)[C@@H]3C[C@@H]3F)ccc12 [Compound 89, (1S,2S)-2-fluoro-N-(3-(2-methoxypyridin-3-yl)-2-methyl-1H-pyrrolo[2,3-b]pyridin-6-yl)cyclopropane-1-carboxamide] | 219 nM | 337 nM
17 | COc1c(F)cccc1-c1n[nH]c2nc(NC(=O)[C@@H]3C[C@@H]3F)ccc12 [Compound 100, (1S,2S)-2-fluoro-N-(3-(3-fluoro-2-methoxyphenyl)-1H-pyrazolo[3,4-b]pyridin-6-yl)cyclopropane-1-carboxamide] | 105 nM | 98.2 nM
18 | COc1c(-c2c[nH]c3nc(NC(=O)[C@@H]4C[C@@H]4F)ccc23)ccn2ccnc12 [Compound 114, (1S,2S)-2-fluoro-N-(3-[8-methoxyimidazo[1,2-a]pyridin-7-yl]-1H-pyrrolo[2,3-b]pyridin-6-yl)cyclopropane-1-carboxamide] | 150 nM | 51.4 nM

Now those with a lower IC50 (ABL1 (T315I)), led by results:

Row | IC50 (ABL1 (T315I)) | IC50 (ABL1) | Compound
19 | 61.6 nM | 199 nM | COc1ccccc1-c1c[nH]c2nc(NC(=O)NCCN(C)C)ccc12 [Compound 97, 3-[2-(dimethylamino)ethyl]-1-[3-(2-methoxyphenyl)-1H-pyrrolo[2,3-b]pyridin-6-yl]urea]
20 | 60.8 nM | 65.5 nM | COc1c(F)cc(F)c(OC)c1-c1c[nH]c2nc(NC(=O)[C@@H]3C[C@@H]3F)ccc12 [Compound 120, (1S,2S)—N-[3-(3,5-difluoro-2,6-dimethoxyphenyl)-1H-pyrrolo[2,3-b]pyridin-6-yl]-2-fluorocyclopropane-1-carboxamide]
21 | 29.1 nM | 102 nM | COc1ccccc1-c1c[nH]c2nc(NC(=O)NCCC#N)ccc12 [Compound 104, 3-(2-cyanoethyl)-1-[3-(2-methoxyphenyl)-1H-pyrrolo[2,3-b]pyridin-6-yl]urea]
22 | 27.7 nM | 110 nM | O=C(Nc1ccc2c(-c3ccc4cc[nH]c4c3)c[nH]c2n1)C1CC1 [Compound 20, N-(3-(1H-indol-6-yl)-1H-pyrrolo[2,3-b]pyridin-6-yl)cyclopropanecarboxamide]
23 | 27.2 nM | 30 nM | COc1cccc(OC)c1-c1c[nH]c2nc(NC(=O)C3CC3CN3CCNCC3)ccc12 (single isomer, unassigned) [Example S150, Enantiomer 2, N-[3-(2,6-dimethoxyphenyl)-1H-pyrrolo[2,3-b]pyridin-6-yl]-2-(piperazin-1-ylmethyl)cyclopropane-1-carboxamide]
24 | 20.6 nM | 86.4 nM | O=C(Nc1ccc2c(-c3c(F)cccc3F)c[nH]c2n1)C1CC1 [Compound 46, N-(3-(2,6-difluorophenyl)-1H-pyrrolo[2,3-b]pyridin-6-yl)cyclopropanecarboxamide]
25 | 19.9 nM | 73.4 nM | COc1ccccc1-c1c[nH]c2nc(NC(=O)NCC3CC3)ccc12 [Compound 122, 3-(cyclopropylmethyl)-1-[3-(2-methoxyphenyl)-1H-pyrrolo[2,3-b]pyridin-6-yl]urea]
26 | 19.5 nM | 151 nM | COc1ccccc1-c1c[nH]c2nc(NC(=O)[C@H]3C[C@@H]3CC#N)ccc12 (relative stereo) [Compound 107, trans-2-(cyanomethyl)-N-(3-(2-methoxyphenyl)-1H-pyrrolo[2,3-b]pyridin-6-yl)cyclopropane-1-carboxamide]
27 | 17.6 nM | 56.5 nM | COc1ccccc1-c1c[nH]c2nc(NC(=O)NC3CC3)ccc12 [Compound 123, 3-cyclopropyl-1-[3-(2-methoxyphenyl)-1H-pyrrolo[2,3-b]pyridin-6-yl]urea]
28 | 14.5 nM | 33 nM | O=C(Nc1ccc2c(-c3ccc4[nH]ccc4c3)c[nH]c2n1)C1CC1 [Compound 18, N-[3-(1H-indol-5-yl)-1H-pyrrolo[2,3-b]pyridin-6-yl]cyclopropanecarboxamide]
29 | 11 nM | 8.62 nM | COc1cc2cn[nH]c2cc1-c1c[nH]c2nc(NC(=O)[C@H]3C[C@H]3F)ccc12 [Compound 59, (1R,2R)-2-fluoro-N-[3-(5-methoxy-1H-indazol-6-yl)-1H-pyrrolo[2,3-b]pyridin-6-yl]cyclopropane-1-carboxamide]
30 | 2.94 nM | 5.3 nM | COc1nc2[nH]ccc2cc1-c1c[nH]c2nc(NC(=O)[C@@H]3C[C@@H]3F)ccc12 [Compound 93, (1S,2S)-2-fluoro-N-(6′-methoxy-1H,1′H-[3,5′-bipyrrolo[2,3-b]pyridin]-6-yl)cyclopropane-1-carboxamide]
